Earlier results, collected in patent US20150141404A1, “NON-IONIC VESICLE FORMULATIONS OF CALCIUM CHANNEL BLOCKERS” (CONTRACT PHARMACEUTICALS LIMITED, priority 2012, published 2015).

Test system: anal fissure
Conditions: topical

COc1ccc([C@@H]2Sc3ccccc3N(CCN(C)C)C(=O)[C@@H]2OC(C)=O)cc1 [diltiazem, Diltiazem]
healing rates: improved | maximum resting pressure (MRP): reduces
